According to patent US20160017273A1, “SPERM SELECTION UNIT STRUCTURE, SPERM SCREENING DEVICE PROVIDED WITH SPERM SELECTION UNIT STRUCTURE, AND METHOD OF PREPARING SEMEN FOR FERTILIZATION” (NATIONAL INSTITUTE OF ADVANCED INDUSTRIAL SCIENCE AND …, priority 2013, published 2016):

System: sperm of thawed frozen semen
Assay: ratio between X sperm and Y sperm (real time PCR) in semen recovered by the sperm screening device after the sperm preservation step with a phenoxazine compound
Assay type: cell-based, Holstein cattle
Settings: 25 μM brilliant cresyl blue + 5 mM glucose-6-phosphate, no electron accepting substance added, 5% CO2
Procedure: Frozen semen of WHO OCEANIC JOVIAN ET (Holstein cattle) was thawed in accordance with the predetermined steps, 200 μl of thawed semen was sampled and was put into a tube having a capacity of 1.5 ml. Then, semen was subjected to the centrifugal separation (7 minutes, 2000 rpm), and a half of supernatant of the semen after being subjected to the centrifugal separation was thrown away and approximately 1004 of semen was left in the tube.
An approximately 100 μL of buffer solution (obtained by adding 6 mg/mL BSA+10 μg/mL of gentamycin+5 mM EGTA to the commercially available “SP-TALP” solution) is added into the tube, the buffer solution is stirred lightly and, thereafter, the buffer solution was incubated for 50 minutes at 37° with 5% CO2.
Next, the tube was subjected to the centrifugal separation again (7 minutes, 2000 rpm), and a supernatant of the solution was thrown away, and an approximately 100 μL of buffer solution (obtained by adding 6 mg/mL BSA+10 […] to the commercially available “SP-TALP” solution; not containing EGTA) was added into the tube and, thereafter, the solution was stirred lightly.
The tube was subjected to the centrifugal separation again (7 minutes, 2000 rpm), and 100 μL of a supernatant of the solution was thrown away, and an approximately 100 μL of buffer solution (obtained by adding 6 mg/mL BSA+10 μg/mL gentamycin +25 μM brilliant cresyl blue +5 mM glucose-6-phosphate to the commercially available “SP-TALP” solution) was added into the tube and, thereafter, the solution was incubated at 37° C. with 5% CO2 (sperm preservation step). […]
Thereafter, sperm having high motility were recovered by using the sperm screening device according to this embodiment. Then, with respect to the acquired semen for artificial insemination, a ratio between X sperm and Y sperm was investigated using a real time PCR method.

[1] = incubation 30 minutes at 37° C.
[2] = incubation 50 minutes at 37° C.

Substance: brilliant cresyl blue
- ratio of X sperm [1]: 39%
- ratio of Y sperm [1]: 61%
- ratio of X sperm [2]: 35%
- ratio of Y sperm [2]: 65%
